The assay has as its target T1, LRRK2 (Homo sapiens, UniProt Q5S007, G2019S).
T1 construct: purchased Invitrogen PV4882
The assay can be described thus: In Vitro LRRK2 LabChip Assay (LRRK2 Ki). Format: biochemical. Conditions: Table 5 compounds (formula I). As to the method:
In Vitro LRRK2 LabChip Assay
This assay was used to determine a compound's potency in inhibiting activity of LRRK2 by determining, Kiapp, IC50, or percent inhibition values. In a polypropylene plate, LRRK2, fluorescently-labeled peptide substrate, ATP and test compound were incubated together. Using a LabChip 3000 (Caliper Life Sciences), after the reaction the substrate was separated by capillary electrophoresis into two populations: phosphorylated and unphosphorylated. The relative amounts of each were quantitated by fluorescence intensity. LRRK2 Ki was determined according to the equation: Y=V0*(1−((x+Ki*(1+S/Km)+Et)/(2*Et)−(((x+Ki*(1+S/Km)+Et)^2−(4*Et*x))^0.5)/(2*Et))). Ki values in Table 4 and elsewhere herein are shown in μM.
Assay conditions and materials used were as follows:
LRRK2 Wild type in 5 mM MgCl2: 15 nM (Invitrogen lot #500607F)
Kinase reaction time: 2 hours
Wild type in 5 mM MgCl2: 80 μM
Solid Support: Black 50 μL volume polypropylene 384 well plate (MatriCal cat # MP101-1-PP)
Kinase: LRRK2 G2019S (Invitrogen cat #PV4882). • LRRK2 Wild type (Invitrogen cat #PV4874).
Substrate: 5FAM-[…]-CONH2
Non-binding plate: 384 well clear V-bottom polypropylene plates (Greiner cat #781280).
ATP: 10 mM ATP (Cell Signaling cat #9804).
Coating Reagent #3: Coating Reagent #3 (Caliper).
Complete Reaction Buffer: H2O/25 mM Tris, pH 8.0/5 mM MgCl2/2 mM DTT/0.01% Triton X-100.
Stop Solution: H2O/100 mM HEPES, pH 7.2/0.015% Brij-35/0.2% Coating Reagent #3/20 mM EDTA.
Separation Buffer: H2O/100 mM HEPES, pH 7.2/0.015% Brij-35/0.1% Coating Reagent #3/1:200 Coating Reagent #8/10 mM EDTA/5% DMSO.
Compound Plate Preparation:
For serial dilutions, 34.6 μl DMSO was added to columns 3-24. For the assay controls, 37.5 μl DMSO was added to columns 1 and 2 of rows A and P. a, d and 50 μl 25 μM G-028831 (Staurosporine) was added to columns 1 and 2, row B. For the samples: to start at 100 μM, 37.5 μl DMSO was to columns 1 and 2, then 12.5 μl 10 mM compound; to start at 10 μM, 78 μl DMSO was added to columns 1 & 2, then 2 μl 10 mM compound; and to start at 1 μM, 25 μM compound (2 μl 10 mM cmpd+798 μl DMSO) was added to empty columns 1 and 2. A Precision instrument was used to perform 1:3.16 serial dilutions (“PLK_BM_serial_halflog”).
ATP was diluted to 282.1 μM in Complete Kinase Buffer (final concentration was 130 μM).
Total and Blank Preparation:
In Complete Reaction Buffer, substrate was diluted to 4 μM. Equal volumes of Complete Reaction Buffer and 4 μM substrate were combined to obtain the blank. Equal volumes of Complete Reaction Buffer and 4 μM substrate were combined and to the combined solution was added 2× final LRRK2 concentration.
To a 50 μl polypropylene plate, 5 μl/well buffer/substrate was added by hand to Blank wells. A Biomek FX was used to start the kinase reaction (“PLK SAR 23 ATP”). The following were added to the appropriate wells:
5 μl/well compound/ATP in Assay Plate;
5 μl/well kinase/substrate in Assay Plate;
The plate was incubated for 2 hours in the dark. Biomek FX was used to stop the kinase reaction (“PLK Stop”), and 10 μl/well Stop solution was added to the Assay Plate. Results were read on the LabChip 3000.
The LabChip 3000 was run using the job “LRRK2 IC50” with the following job settings:
Downstream voltage: −500 V
Upstream voltage: −2350 V
Post sample buffer sip time: 75 seconds
Post dye buffer sip time: 75 seconds
Final delay time: 200 seconds

The text below walks through data of US8809331B2 (Genentech, Inc., priority 2011, dated 2014).

pKi: −log10 of the molar value.

T1 sequence (Q5S007 whole entry G2019S): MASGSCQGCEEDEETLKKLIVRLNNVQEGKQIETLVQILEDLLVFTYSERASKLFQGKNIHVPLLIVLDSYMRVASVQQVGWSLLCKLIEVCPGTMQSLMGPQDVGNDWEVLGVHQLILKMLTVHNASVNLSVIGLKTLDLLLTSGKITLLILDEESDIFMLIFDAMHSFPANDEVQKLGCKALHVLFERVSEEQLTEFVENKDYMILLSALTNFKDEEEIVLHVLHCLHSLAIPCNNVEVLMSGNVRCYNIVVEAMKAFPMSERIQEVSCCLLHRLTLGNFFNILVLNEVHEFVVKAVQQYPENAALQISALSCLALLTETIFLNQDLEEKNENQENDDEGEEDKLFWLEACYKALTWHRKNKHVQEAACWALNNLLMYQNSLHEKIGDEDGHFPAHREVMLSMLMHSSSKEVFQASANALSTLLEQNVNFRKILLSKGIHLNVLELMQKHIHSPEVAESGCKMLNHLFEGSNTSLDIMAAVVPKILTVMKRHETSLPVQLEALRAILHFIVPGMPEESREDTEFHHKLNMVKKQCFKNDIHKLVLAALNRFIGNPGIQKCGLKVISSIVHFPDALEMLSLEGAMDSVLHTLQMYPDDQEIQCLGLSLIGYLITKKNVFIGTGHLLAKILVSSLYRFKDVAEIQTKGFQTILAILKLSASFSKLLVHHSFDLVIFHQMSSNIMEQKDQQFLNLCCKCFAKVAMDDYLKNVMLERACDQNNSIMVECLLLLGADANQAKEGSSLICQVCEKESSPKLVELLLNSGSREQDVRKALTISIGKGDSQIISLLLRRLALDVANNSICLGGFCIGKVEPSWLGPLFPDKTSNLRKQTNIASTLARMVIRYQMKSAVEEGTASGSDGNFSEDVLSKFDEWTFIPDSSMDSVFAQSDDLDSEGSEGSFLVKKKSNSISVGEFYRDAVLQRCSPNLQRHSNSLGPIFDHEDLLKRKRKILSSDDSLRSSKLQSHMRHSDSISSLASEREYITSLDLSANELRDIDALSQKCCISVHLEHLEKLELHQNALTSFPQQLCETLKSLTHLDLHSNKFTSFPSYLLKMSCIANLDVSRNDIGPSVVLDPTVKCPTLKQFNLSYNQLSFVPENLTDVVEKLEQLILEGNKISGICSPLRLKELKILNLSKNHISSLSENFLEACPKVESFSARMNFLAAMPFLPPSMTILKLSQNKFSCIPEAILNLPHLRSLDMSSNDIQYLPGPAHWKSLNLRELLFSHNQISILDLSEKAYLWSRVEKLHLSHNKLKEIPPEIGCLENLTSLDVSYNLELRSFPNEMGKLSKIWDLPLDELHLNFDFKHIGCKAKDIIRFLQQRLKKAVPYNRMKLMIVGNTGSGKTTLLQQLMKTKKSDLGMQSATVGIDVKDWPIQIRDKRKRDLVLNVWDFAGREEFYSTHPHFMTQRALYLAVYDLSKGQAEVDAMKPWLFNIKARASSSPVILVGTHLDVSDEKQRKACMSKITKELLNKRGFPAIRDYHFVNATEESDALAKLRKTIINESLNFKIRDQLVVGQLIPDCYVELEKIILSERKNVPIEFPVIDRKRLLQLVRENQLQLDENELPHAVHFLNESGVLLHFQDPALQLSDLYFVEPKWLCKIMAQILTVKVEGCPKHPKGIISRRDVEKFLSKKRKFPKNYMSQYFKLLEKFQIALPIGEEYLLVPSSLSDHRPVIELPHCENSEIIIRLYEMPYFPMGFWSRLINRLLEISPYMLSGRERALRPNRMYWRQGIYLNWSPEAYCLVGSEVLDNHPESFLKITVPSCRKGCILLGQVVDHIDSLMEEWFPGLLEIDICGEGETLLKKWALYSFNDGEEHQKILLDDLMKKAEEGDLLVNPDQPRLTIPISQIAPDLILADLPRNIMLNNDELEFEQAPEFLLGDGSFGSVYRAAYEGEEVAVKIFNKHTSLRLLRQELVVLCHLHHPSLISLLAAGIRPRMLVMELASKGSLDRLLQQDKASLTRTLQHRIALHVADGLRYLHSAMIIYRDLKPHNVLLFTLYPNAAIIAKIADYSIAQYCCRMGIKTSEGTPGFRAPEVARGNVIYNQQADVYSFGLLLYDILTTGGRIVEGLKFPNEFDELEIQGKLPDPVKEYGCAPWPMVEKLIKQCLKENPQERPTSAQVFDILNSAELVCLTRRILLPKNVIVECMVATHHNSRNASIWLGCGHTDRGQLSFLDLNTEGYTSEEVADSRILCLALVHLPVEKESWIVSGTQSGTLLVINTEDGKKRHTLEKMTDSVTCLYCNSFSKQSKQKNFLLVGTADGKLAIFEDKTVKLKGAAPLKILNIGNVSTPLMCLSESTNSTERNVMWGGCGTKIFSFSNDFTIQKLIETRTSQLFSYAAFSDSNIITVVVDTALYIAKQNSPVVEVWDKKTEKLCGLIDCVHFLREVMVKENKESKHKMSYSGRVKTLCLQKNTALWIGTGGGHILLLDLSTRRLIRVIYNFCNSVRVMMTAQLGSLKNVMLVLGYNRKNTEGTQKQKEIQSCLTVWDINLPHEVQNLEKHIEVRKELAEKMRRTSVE

The pKi is the Ki on a negative log10 scale, so that one unit is a factor of ten. The compound `CCNc1nc(Nc2ccc(C(=O)NC(C)(C)C)cc2OC)ncc1C#N` [Compound 46, N-tert-Butyl-4-(5-cyano-4-ethylamino-pyrimidin-2-ylamino)-3-methoxy-benzamide] showed a pKi of 8.52.

As to `CNc1nc(Nc2ccc(C(=O)N3CCOCC3)cc2OC(F)F)ncc1C(F)(F)F` [Compound 47, [3-Difluoromethoxy-4-(4-methylamino-5-trifluoromethyl-pyrimidin-2-ylamino)-phenyl]-morpholin-4-yl-methanone], the pKi was 8.22.

As to `CNc1nc(Nc2cc(F)c(C(=O)N3CCOCC3)cc2OCCF)ncc1C(F)(F)F` [Compound 48, [2-Fluoro-5-(2-fluoro-ethoxy)-4-(4-methylamino-5-trifluoromethyl-pyrimidin-2-ylamino)-phenyl]-morpholin-4-yl-methanone], the pKi was 8.46.

`CCNc1nc(Nc2cc(F)c(C(=O)N3CCOCC3)cc2OCCF)ncc1C(F)(F)F` [Compound 49, [4-(4-Ethylamino-5-trifluoromethyl-pyrimidin-2-ylamino)-2-fluoro-5-(2-fluoro-ethoxy)-phenyl]-morpholin-4-yl-methanone] had a negative-log Ki (pKi) of 8.69.

For `COc1cc(C(=O)N2CCOCC2)c(F)cc1Nc1ncc(C(F)(F)F)c(OC)n1` [Compound 50, [2-Fluoro-5-methoxy-4-(4-methoxy-5-trifluoromethyl-pyrimidin-2-ylamino)-phenyl]-morpholin-4-yl-methanone], the negative logarithm of the Ki (pKi) is 7.48.

`O=C(c1ccc(Nc2ncc(C(F)(F)F)c(NC3CC3)n2)c(F)c1F)N1CCOCC1` [Compound 51, [4-(4-Cyclopropylamino-5-trifluoromethyl-pyrimidin-2-ylamino)-2,3-difluoro-phenyl]-morpholin-4-yl-methanone]: the negative-log Ki (pKi) was 8.64.

`O=C(c1cc(F)c(Nc2ncc(C(F)(F)F)c(NC3CC3)n2)cc1F)N1CCOCC1` [Compound 52, [4-(4-Cyclopropylamino-5-trifluoromethyl-pyrimidin-2-ylamino)-2,5-difluoro-phenyl]-morpholin-4-yl-methanone] showed a negative logarithm of the Ki (pKi) of 8.47.

For the compound `CNc1nc(Nc2cc(Cl)c(C(=O)N3CCOCC3)cc2F)ncc1C(F)(F)F` [Compound 53, [2-Chloro-5-fluoro-4-(4-methylamino-5-trifluoromethyl-pyrimidin-2-ylamino)-phenyl]-morpholin-4-yl-methanone], the negative logarithm of the Ki (pKi) was 7.71.

In turn, `CCNc1nc(Nc2ccc(C(=O)N3CC[C@H](F)C3)cc2OC)ncc1C#N` [Compound 54, 4-Ethylamino-2-[4-((S)-3-fluoro-pyrrolidine-1-carbonyl)-2-methoxy-phenylamino]-pyrimidine-5-carbonitrile] showed a negative logarithm of the Ki (pKi) of 7.08.

`CNc1nc(Nc2cc(OC)c(C(=O)N(C)c3cnn(C)c3)cc2Cl)ncc1C(F)(F)F` [Compound 55, 5-Chloro-2-methoxy-N-methyl-4-(4-methylamino-5-trifluoromethyl-pyrimidin-2-ylamino)-N-(1-methyl-1H-pyrazol-4-yl)-benzamide] showed a negative logarithm of the Ki (pKi) of 7.84.

Compound `CCNc1nc(Nc2cc(OC)c(C(=O)N3CCC(F)(F)C3)cc2OC)ncc1C(F)(F)F` [Compound 56, (3,3-Difluoro-pyrrolidin-1-yl)-[4-(4-ethylamino-5-trifluoromethyl-pyrimidin-2-ylamino)-2,5-dimethoxy-phenyl]-methanone] had a pKi of 8.95.

Take `COc1nc(Nc2ccc(C(=O)N3CCOCC3)cc2OCCF)ncc1Cl` [Compound 57, [4-(5-Chloro-4-methoxy-pyrimidin-2-ylamino)-3-(2-fluoro-ethoxy)-phenyl]-morpholin-4-yl-methanone]: the pKi is 7.84.

`CNc1nc(Nc2cc(OC)c(C(=O)N3CCOCC3)cc2C)ncc1C(F)(F)F` [Compound 58, [2-Methoxy-5-methyl-4-(4-methylamino-5-trifluoromethyl-pyrimidin-2-ylamino)-phenyl]-morpholin-4-yl-methanone] showed a pKi of 8.25.

Compound `CCNc1nc(Nc2cc(Cl)c(C(=O)N3CCOCC3)cc2F)ncc1C(F)(F)F` [Compound 59, [2-Chloro-4-(4-ethylamino-5-trifluoromethyl-pyrimidin-2-ylamino)-5-fluoro-phenyl]-morpholin-4-yl-methanone] had a pKi of 8.37.

`CNc1nc(Nc2ccc(C(=O)N3CCOCC3)c(F)c2Cl)ncc1C(F)(F)F` [Compound 60, [3-Chloro-2-fluoro-4-(4-methylamino-5-trifluoromethyl-pyrimidin-2-ylamino)-phenyl]-morpholin-4-yl-methanone]: the pKi was 7.85.

Turning to `CCNc1nc(Nc2cc(OC)c(C(=O)N3CCC(F)(F)C3)cc2OCCF)ncc1C(F)(F)F` [Compound 61, (3,3-Difluoro-pyrrolidin-1-yl)-[4-(4-ethylamino-5-trifluoromethyl-pyrimidin-2-ylamino)-5-(2-fluoro-ethoxy)-2-methoxy-phenyl]-methanone], the negative logarithm of the Ki (pKi) was 8.99.

Turning to `CCNc1nc(Nc2cc(F)c(C(=O)N3CCOCC3)c(F)c2OC)ncc1C(F)(F)F` [Compound 62, [4-(4-Ethylamino-5-trifluoromethyl-pyrimidin-2-ylamino)-2,6-difluoro-3-methoxy-phenyl]-morpholin-4-yl-methanone], the pKi is 8.04.

In the case of `CNc1nc(Nc2cc(F)c(C(=O)N3CCOCC3)c(F)c2OC)ncc1C(F)(F)F` [Compound 63, [2,6-Difluoro-3-methoxy-4-(4-methylamino-5-trifluoromethyl-pyrimidin-2-ylamino)-phenyl]-morpholin-4-yl-methanone], the pKi is 7.61.

For the compound `CCOc1nc(Nc2cc(F)c(C(=O)N3CCOCC3)cc2OC)ncc1C(F)(F)F` [Compound 64, [4-(4-Ethoxy-5-trifluoromethyl-pyrimidin-2-ylamino)-2-fluoro-5-methoxy-phenyl]-morpholin-4-yl-methanone], the pKi was 7.77.

Compound `CNc1nc(Nc2cc(OC)c(C(=O)N3CCOCC3)cc2OC)ncc1C(F)(F)F` [Compound 65, [2,5-Dimethoxy-4-(4-methylamino-5-trifluoromethyl-pyrimidin-2-ylamino)-phenyl]-morpholin-4-yl-methanone] gave a negative-log Ki (pKi) of 8.96.

In turn, `CCNc1nc(Nc2cc(OC)c(C(=O)N3CCC(F)(F)C3)cc2OCF)ncc1C(F)(F)F` [Compound 66, (3,3-Difluoro-pyrrolidin-1-yl)-[4-(4-ethylamino-5-trifluoromethyl-pyrimidin-2-ylamino)-5-fluoromethoxy-2-methoxy-phenyl]-methanone] gave a negative-log Ki (pKi) of 9.41.

`CNc1nc(Nc2cc(C(F)(F)F)c(C(=O)N3CCOCC3)cc2OC)ncc1C(F)(F)F` [Compound 67, [5-Methoxy-4-(4-methylamino-5-trifluoromethyl-pyrimidin-2-ylamino)-2-trifluoromethyl-phenyl]-morpholin-4-yl-methanone]: the negative logarithm of the Ki (pKi) was 8.60.

Compound `CNc1nc(Nc2cc(C(F)(F)F)c(C(=O)N3CCOCC3)cc2OC)ncc1Cl` [Compound 68, [4-(5-Chloro-4-methylamino-pyrimidin-2-ylamino)-5-methoxy-2-trifluoromethyl-phenyl]-morpholin-4-yl-methanone] showed a pKi of 8.33.

`CNc1nc(Nc2cc(F)c(C(=O)N3CCOCC3)cc2Cl)ncc1C(F)(F)F` [Compound 69, [5-Chloro-2-fluoro-4-(4-methylamino-5-trifluoromethyl-pyrimidin-2-ylamino)-phenyl]-morpholin-4-yl-methanone]: the negative-log Ki (pKi) was 8.03.

Turning to `O=C(c1cc(OCCF)c(Nc2ncc(C(F)(F)F)c(NC3CC3)n2)cc1F)N1CCOCC1` [Compound 70, [4-(4-Cyclopropylamino-5-trifluoromethyl-pyrimidin-2-ylamino)-2-fluoro-5-(2-fluoro-ethoxy)-phenyl]-morpholin-4-yl-methanone], the pKi is 9.18.
